How the values were obtained:
Assay type in all cases: biochemical
[1] = biological target: T1, BACE-1 (β-secretase, beta-site APP cleaving enzyme 1) (Homo sapiens, UniProt P56817); experiment: fluorogenic Mca/Dnp peptide cleavage, 5-point dose response
T1 construct: gene BACE1; commercial recombinant enzyme (R&D Systems 931-AS)

[2] = biological target: T2, AChE (acetylcholinesterase) (Homo sapiens, UniProt P22303); experiment: Ellman assay, absorbance at […] nm, 7-point dose response
T2 construct: recombinant, produced in stably expressing CHO-K1 cell line

[3] = biological target: T2, AChE (acetylcholinesterase); experiment: Ellman assay, absorbance at […] nm, single point
[4] = biological target: T1, BACE-1 (β-secretase, beta-site APP cleaving enzyme 1); experiment: fluorogenic Mca/Dnp peptide cleavage, single point
From the text: fluorogenic Mca/Dnp peptide cleavage, single point on BACE-1 (β-secretase, beta-site APP cleaving enzyme 1)

T1 sequence (P56817 46-457 limits assumed): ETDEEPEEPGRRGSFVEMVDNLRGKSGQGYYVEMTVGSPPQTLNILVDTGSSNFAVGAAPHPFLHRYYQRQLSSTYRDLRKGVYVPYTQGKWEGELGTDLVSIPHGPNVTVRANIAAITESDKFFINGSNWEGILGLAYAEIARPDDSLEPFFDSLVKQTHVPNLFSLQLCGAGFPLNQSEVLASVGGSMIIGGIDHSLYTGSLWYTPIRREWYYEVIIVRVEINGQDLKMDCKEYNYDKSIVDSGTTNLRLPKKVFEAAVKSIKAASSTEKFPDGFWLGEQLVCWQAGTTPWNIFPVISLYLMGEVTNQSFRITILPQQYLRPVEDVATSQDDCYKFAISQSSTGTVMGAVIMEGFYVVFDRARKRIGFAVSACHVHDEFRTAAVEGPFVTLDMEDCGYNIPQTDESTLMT
T2 sequence (P22303 32-614): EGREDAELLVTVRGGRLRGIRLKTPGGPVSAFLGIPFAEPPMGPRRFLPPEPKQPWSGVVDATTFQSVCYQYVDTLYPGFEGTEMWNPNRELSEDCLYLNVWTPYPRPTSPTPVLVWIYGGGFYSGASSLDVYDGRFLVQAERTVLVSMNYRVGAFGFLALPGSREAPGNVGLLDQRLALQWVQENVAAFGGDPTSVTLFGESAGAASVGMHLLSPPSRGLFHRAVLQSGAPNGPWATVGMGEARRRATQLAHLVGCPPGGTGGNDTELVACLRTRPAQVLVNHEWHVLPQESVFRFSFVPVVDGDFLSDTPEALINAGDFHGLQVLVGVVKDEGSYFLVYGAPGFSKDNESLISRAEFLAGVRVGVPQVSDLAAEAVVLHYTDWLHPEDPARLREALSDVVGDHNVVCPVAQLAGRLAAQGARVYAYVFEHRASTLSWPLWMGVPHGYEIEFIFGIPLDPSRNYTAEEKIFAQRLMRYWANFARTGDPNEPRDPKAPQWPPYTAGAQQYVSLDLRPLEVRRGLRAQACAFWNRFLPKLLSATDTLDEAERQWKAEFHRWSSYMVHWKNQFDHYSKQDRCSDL

| Structure (SMILES) | IC50 [1] | IC50 [2] | inhibition at 10 µM [3] | inhibition at 100 µM [4] |
| --- | --- | --- | --- | --- |
| CCn1c(=O)c(N2CCCC(C(=O)NC3CCN(Cc4ccccc4)CC3)C2)nc2ccccc21 (stereo not drawn) [compound 2, F681-0222] | 63 µM | 4.4 µM | – | – |
| COc1cccc(N2CC(C(=O)Nc3ccccc3CN(C)C3CCCCC3)CC2=O)c1 (stereo not drawn) [compound 5, T6769894] | 60 µM | – | 19% | – |
| CCOc1cccc(C2CC(c3ccc(C)cc3)=NC3(CCN(C(C)=O)CC3)N2)c1O (stereo not drawn) [compound 6, Z274-0419] | 150 µM | – | -12% | – |
| Cc1ccc(Cn2c(=O)c(N3CCC(C(=O)NCCN4CCCCC4C)CC3)nc3ccccc32)cc1 (stereo not drawn) [compound 1, C700-2595] | – | 8.2 µM | – | 19% |
| Cn1c(=O)c(N2CCCC(C(=O)NC3CCN(Cc4ccccc4)CC3)C2)nc2ccccc21 (stereo not drawn) [compound 3, F681-0412] | 55 µM | 6.7 µM | – | – |
| CCN1CCCC1CNC(=O)CCc1nnc2n(CCc3ccccc3)c(=O)c3ccccc3n12 (stereo not drawn) [compound 4, C741-0335] | – | 9.7 µM | – | 6% |

— publication PMC9655245, “Dual Inhibitors of AChE and BACE-1 for Reducing Aβ in Alzheimer’s Disease: From In Silico to In Vivo” (International Journal of Molecular Sciences, 2022)
